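Method: 48-hour compound exposure of cells in 96-well plates, five concentrations, linear interpolation of endpoints. GI50: concentration for 50% inhibition of growth.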 Activity calls are given as the source filed them. No stated cut-off is given here; in the data, active = GI50 up to about 1.1 µM and inactive = higher. Some results are limits rather than exact numbers.

Some test systems named below: SNB-75; DU-145; HT-29; HCC 2998; BT-549; HCT-15; SF-539; CCRF-CEM; NCI-H460; UACC-257; U-251; MDA-N; SNB-19; SF-295; SK-MEL-5; 786-0; LOX IMVI; CAKI-1; HCT-116; UACC-62.
Holding throughout (test): NCI anticancer screen, dose series, 48 h

For the compound `CC(C)(CN1CCCCC1)C(/C=C/c1ccc(Cl)cc1)=N\NC(=O)N/N=C(/C=C/c1ccc(Cl)cc1)C(C)(C)CN1CCCCC1`, the GI50 in the assay with SNB-75 was 1.85 µM (inactive); with DU-145, 6.01 µM (inactive); in the assay on HT-29, 3.58 µM (inactive); in the assay on HCC 2998, 5.51 µM (inactive); with BT-549 it was 3.59 µM (inactive); with HCT-15, 2.47 µM. For the same compound, the GI50 in the assay with SF-539 was 3.44 µM (inactive); in the assay with CCRF-CEM, 2.64 µM (inactive); with NCI-H460, 3.21 µM (inactive); in the assay on UACC-257, 5.05 µM (inactive); with U-251 it was 3.37 µM (inactive); in the assay with MDA-N, 3.34 µM (inactive). For the same compound, the GI50 is 3.4 µM (inactive) in the assay with SNB-19; 10 µM (inactive) in the assay with SF-295; 5.14 µM (inactive) in the assay on SK-MEL-5; 2.76 µM (inactive) in the assay with 786-0; 2.3 µM (inactive) in the assay on LOX IMVI; 2.39 µM (inactive) with CAKI-1. The GI50 with HCT-116 is 3.19 µM (inactive); in the assay on UACC-62, 3.53 µM (inactive).
Consider `C[Si](C)(C)C#CCO[Si](C)(C)C`, for which the GI50 in the assay on SNB-75 is 47.2 µM (inactive); in the assay on DU-145 it was > 100 µM (inactive); in the assay on HT-29 it was 32.9 µM (inactive); in the assay with HCC 2998 it was > 100 µM (inactive); in the assay on BT-549, 39.1 µM (inactive); in the assay with HCT-15 it was more than 79.8 µM. The GI50 in the assay with SF-539 is 21.9 µM (inactive); in the assay on CCRF-CEM, 5.69 µM (inactive); in the assay with NCI-H460, > 100 µM (inactive); in the assay on UACC-257 it was > 100 µM (inactive); in the assay on U-251, > 100 µM (inactive); with MDA-N, 49.8 µM (inactive). In addition, the GI50 in the assay with SNB-19 was > 100 µM (inactive); with SF-295, > 100 µM (inactive); with SK-MEL-5, > 100 µM (inactive); in the assay on 786-0, 32.7 µM (inactive); in the assay on LOX IMVI, 7.03 µM (inactive); in the assay with CAKI-1, > 78.7 µM (inactive). Also, the GI50 was 65 µM (inactive) in the assay on HCT-116 and 56.5 µM (inactive) in the assay on UACC-62.
Take `O=C(C=P(c1ccccc1)(c1ccccc1)c1ccccc1)c1ccc(-c2cccs2)cc1`: the GI50 in the assay on SNB-75 was 3.56 µM (inactive); in the assay on DU-145 it was 8.73 µM (inactive); with HT-29, 3.75 µM (inactive); in the assay with HCC 2998 it was 2.83 µM (inactive); in the assay on BT-549, 20.5 µM (inactive); in the assay with HCT-15, 6.61 µM. The GI50 is 3.97 µM (inactive) with SF-539; 4.56 µM (inactive) with CCRF-CEM; 3.97 µM (inactive) in the assay with NCI-H460; 1.8 µM (inactive) in the assay on UACC-257; 3.85 µM (inactive) with U-251; 3.22 µM (inactive) in the assay on MDA-N. The GI50 was 2.96 µM (inactive) in the assay with SNB-19; 4.17 µM (inactive) with SF-295; 2.17 µM (inactive) with SK-MEL-5; 4.75 µM (inactive) in the assay with 786-0; 4.57 µM (inactive) in the assay on LOX IMVI; 4.91 µM (inactive) in the assay on CAKI-1. For the same compound, the GI50 was 3.74 µM (inactive) with HCT-116 and 1.64 µM (inactive) in the assay on UACC-62.
On to `Nc1nc(Cl)cc(NCC2(O)CC2)n1`, for which the GI50 was > 100 µM (inactive) in the assay on SNB-75; > 100 µM (inactive) in the assay on DU-145; > 100 µM (inactive) in the assay with HT-29; > 100 µM (inactive) with HCC 2998; > 100 µM (inactive) with BT-549; more than 100 µM in the assay on HCT-15. The GI50 in the assay with SF-539, with CCRF-CEM, with NCI-H460, with UACC-257, with U-251 and in the assay on MDA-N was > 100 µM (inactive) each time. Moreover, the GI50 in the assay on SNB-19, with SF-295, with SK-MEL-5, in the assay with 786-0, with LOX IMVI and in the assay with CAKI-1 was > 100 µM (inactive) throughout. Also, the GI50 with HCT-116 and with UACC-62 was > 100 µM (inactive) throughout.
As for `C=C(C(=O)O)[C@@H]1C[C@@H]2O[C@H]1CC(C)=CCC/C(C)=C/CC[C@@]2(C)O`, the GI50 was > 100 µM (inactive) with SNB-75; > 100 µM (inactive) in the assay on DU-145; > 100 µM (inactive) with HCC 2998; > 100 µM (inactive) with BT-549; more than 100 µM in the assay on HCT-15; > 100 µM (inactive) in the assay on SF-539. Besides, the GI50 in the assay on CCRF-CEM, in the assay with NCI-H460, with UACC-257, with U-251, in the assay on MDA-N and in the assay on SNB-19 was > 100 µM (inactive) each time. For the same compound, the GI50 in the assay with SF-295, in the assay with SK-MEL-5, in the assay with 786-0, in the assay with LOX IMVI, in the assay with CAKI-1 and with HCT-116 was > 100 µM (inactive) each time. Further, in the assay with UACC-62, the GI50 was > 100 µM (inactive).
As to `O=C(O)C1CCCCN1CCc1c[nH]c2ccccc12` (stereo not given), the GI50 in the assay on SNB-75 was > 100 µM (inactive); in the assay with DU-145 it was > 100 µM (inactive); in the assay on HT-29, > 100 µM (inactive); with HCC 2998, > 100 µM (inactive); in the assay with BT-549, > 100 µM (inactive); in the assay with HCT-15, more than 100 µM. For the same compound, the GI50 in the assay on SF-539, in the assay on CCRF-CEM, in the assay on NCI-H460, in the assay on UACC-257, in the assay on U-251 and in the assay with MDA-N was > 100 µM (inactive) each time. Further, the GI50 in the assay with SNB-19, in the assay with SF-295, in the assay with 786-0, with LOX IMVI, in the assay with CAKI-1 and in the assay on HCT-116 was > 100 µM (inactive) in each case. The GI50 in the assay on UACC-62 was > 100 µM (inactive).
In the case of `COc1ccc2nc3c(nc2c1)C(C)(C)C=C3c1ccc(Br)cc1`, the GI50 in the assay with SNB-75 was 87.7 µM (inactive); in the assay with DU-145, > 100 µM (inactive); in the assay on HT-29, > 100 µM (inactive); in the assay with HCC 2998, > 100 µM (inactive); with BT-549 it was > 100 µM (inactive); with HCT-15 it was more than 100 µM. The GI50 with SF-539 was 97.3 µM (inactive); in the assay on CCRF-CEM it was > 100 µM (inactive); in the assay on NCI-H460 it was > 100 µM (inactive); in the assay with UACC-257, > 100 µM (inactive); with U-251, 97.9 µM (inactive); in the assay with MDA-N, > 100 µM (inactive). The GI50 in the assay with SNB-19, with SK-MEL-5, with 786-0, in the assay with LOX IMVI, with CAKI-1 and with HCT-116 was > 100 µM (inactive) throughout.
As to `O=c1[nH]nc(-c2cccc([N+](=O)[O-])c2)[nH]1`, the GI50 is > 100 µM (inactive) in the assay on SNB-75; > 100 µM (inactive) in the assay with DU-145; > 100 µM (inactive) with HT-29; > 100 µM (inactive) in the assay with HCC 2998; > 100 µM (inactive) in the assay with BT-549; more than 100 µM with HCT-15. Also, the GI50 in the assay with SF-539, in the assay with CCRF-CEM, in the assay with NCI-H460, in the assay with UACC-257, with U-251 and in the assay with MDA-N was > 100 µM (inactive) in each case. For the same compound, the GI50 in the assay on SNB-19, in the assay on SF-295, in the assay on 786-0, in the assay on LOX IMVI, in the assay with CAKI-1 and in the assay on HCT-116 was > 100 µM (inactive) throughout. For the same compound, in the assay with UACC-62, the GI50 is > 100 µM (inactive).
For the compound `CC(C)C(C/C=C1/CC(CO)(COC(=O)CC(C(C)C)C(C)C)OC1=O)C(C)C` (stereo not given), the GI50 with SNB-75 is 1.78 µM (inactive); in the assay on DU-145 it was 13.2 µM (inactive); with HT-29, 16.3 µM (inactive); in the assay with HCC 2998, 2.89 µM (inactive); in the assay with BT-549, 15 µM (inactive); in the assay on HCT-15 it was 15.6 µM. The GI50 in the assay with SF-539 was 11.2 µM (inactive); with CCRF-CEM it was 2.74 µM (inactive); in the assay on NCI-H460 it was 2.44 µM (inactive); with UACC-257, 16 µM (inactive); in the assay with U-251, 11.6 µM (inactive); in the assay with MDA-N, 11.5 µM (inactive). The GI50 with SNB-19 was 12.5 µM (inactive); in the assay on SF-295, 0.259 µM (active); in the assay with SK-MEL-5, 10.4 µM (inactive); in the assay with 786-0, 5.61 µM (inactive); in the assay with LOX IMVI, 5.27 µM (inactive); with CAKI-1, 2.15 µM (inactive). Moreover, the GI50 is 16.2 µM (inactive) in the assay with HCT-116 and 15.7 µM (inactive) in the assay with UACC-62.
On to `CCc1nc(N)nc(N)c1-c1ccc(N2CCNCC2)cc1`, for which the GI50 in the assay with SNB-75 was > 100 µM (inactive); in the assay on DU-145, 62.7 µM (inactive); in the assay with HT-29, 38.6 µM (inactive); in the assay on HCC 2998 it was 42.8 µM (inactive); in the assay with BT-549, 64 µM (inactive); with HCT-15 it was 54.5 µM. The GI50 with SF-539 was 77.3 µM (inactive); in the assay on CCRF-CEM, 33.7 µM (inactive); in the assay on NCI-H460 it was 33.1 µM (inactive); with UACC-257 it was 33.2 µM (inactive); in the assay on U-251 it was 88.7 µM (inactive); with MDA-N, 64.7 µM (inactive). In addition, the GI50 was 47.6 µM (inactive) in the assay with SNB-19; 79.6 µM (inactive) with SF-295; 19.8 µM (inactive) with SK-MEL-5; 60.5 µM (inactive) in the assay with 786-0; 39.7 µM (inactive) in the assay with LOX IMVI; > 97.3 µM (inactive) with CAKI-1. The GI50 in the assay on HCT-116 is 35.2 µM (inactive); with UACC-62 it was 69 µM (inactive).

Values taken from ChEMBL document CHEMBL1201862, “PubChem BioAssay data set” (2004).
